Test results as given in ChEMBL document CHEMBL2073937, “In vitro substrate identification studies for p-glycoprotein-mediated transport: species difference and predictability of in vivo results” (J Pharmacol Exp Ther, 2001).

Columns and labels:
[1] = target: T1, ATP-dependent translocase ABCB1 (Homo sapiens, UniProt P08183); test: TP_TRANSPORTER: transepithelial transport (basal to apical) in MDR1-expressing LLC-PK1 cells; format: functional, cell-based; conditions: pig
[2] = target: T2, ATP-dependent translocase ABCB1 (Mus musculus, UniProt P21447); test: TP_TRANSPORTER: transepithelial transport (basal to apical) in mdr1a-expressing LLC-PK1 cell; format: functional, cell-based; conditions: pig
[3] = target: T2, ATP-dependent translocase ABCB1; test: TP_TRANSPORTER: no change in brain concentration in mdr1a(-/-) mouse; format: functional, organism-based; conditions: in vivo
[4] = target: T2, ATP-dependent translocase ABCB1; test: TP_TRANSPORTER: no change in plasma concentration in mdr1a(-/-) mouse; format: functional, organism-based; conditions: in vivo
[5] = target: T1, ATP-dependent translocase ABCB1; test: TP_TRANSPORTER: cell accumulation in KB-3-1 and KB-V1 cells; format: functional, cell-based; conditions: kb-3-1;kb-v1
[6] = target: T2, ATP-dependent translocase ABCB1; test: TP_TRANSPORTER: increase in plasma concentration in mdr1a(-/-) mouse; format: functional, organism-based; conditions: in vivo
[7] = target: T2, ATP-dependent translocase ABCB1; test: TP_TRANSPORTER: increase in brain concentration in mdr1a(-/-) mouse; format: functional, organism-based; conditions: in vivo

T1 sequence (P08183 whole entry): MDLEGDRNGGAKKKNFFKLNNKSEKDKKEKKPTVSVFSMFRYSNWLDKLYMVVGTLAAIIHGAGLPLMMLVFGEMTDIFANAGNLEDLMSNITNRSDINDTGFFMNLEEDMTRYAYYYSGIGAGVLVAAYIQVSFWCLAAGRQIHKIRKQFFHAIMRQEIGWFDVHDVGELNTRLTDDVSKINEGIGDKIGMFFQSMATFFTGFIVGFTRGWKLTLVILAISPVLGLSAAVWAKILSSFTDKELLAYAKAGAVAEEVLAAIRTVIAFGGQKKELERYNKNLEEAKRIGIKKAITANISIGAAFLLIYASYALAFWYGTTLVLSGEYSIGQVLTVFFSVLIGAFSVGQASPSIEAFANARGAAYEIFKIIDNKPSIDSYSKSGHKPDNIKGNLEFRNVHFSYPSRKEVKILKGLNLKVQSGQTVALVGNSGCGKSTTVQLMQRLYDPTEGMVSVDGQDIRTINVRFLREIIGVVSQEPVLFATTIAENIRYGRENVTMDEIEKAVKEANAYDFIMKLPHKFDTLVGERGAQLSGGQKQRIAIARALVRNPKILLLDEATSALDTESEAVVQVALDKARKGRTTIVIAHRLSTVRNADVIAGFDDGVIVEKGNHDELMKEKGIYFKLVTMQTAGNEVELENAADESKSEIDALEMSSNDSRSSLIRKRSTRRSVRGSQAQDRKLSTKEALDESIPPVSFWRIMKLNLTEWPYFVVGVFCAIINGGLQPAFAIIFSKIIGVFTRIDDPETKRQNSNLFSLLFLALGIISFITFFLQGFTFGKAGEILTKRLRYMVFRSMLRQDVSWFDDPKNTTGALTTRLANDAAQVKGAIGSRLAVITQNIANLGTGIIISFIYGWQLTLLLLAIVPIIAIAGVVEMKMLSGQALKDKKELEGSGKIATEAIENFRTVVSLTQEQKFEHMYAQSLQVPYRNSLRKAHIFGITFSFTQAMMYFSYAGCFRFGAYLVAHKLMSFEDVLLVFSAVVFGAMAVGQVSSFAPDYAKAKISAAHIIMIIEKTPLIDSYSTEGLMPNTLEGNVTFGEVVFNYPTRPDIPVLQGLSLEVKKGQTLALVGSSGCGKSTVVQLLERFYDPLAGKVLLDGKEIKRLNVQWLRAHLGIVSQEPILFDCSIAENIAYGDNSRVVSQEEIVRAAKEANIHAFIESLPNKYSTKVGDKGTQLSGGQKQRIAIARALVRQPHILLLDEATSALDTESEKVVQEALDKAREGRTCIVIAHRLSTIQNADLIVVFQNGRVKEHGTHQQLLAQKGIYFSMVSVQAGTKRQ
T2 sequence (P21447 whole entry): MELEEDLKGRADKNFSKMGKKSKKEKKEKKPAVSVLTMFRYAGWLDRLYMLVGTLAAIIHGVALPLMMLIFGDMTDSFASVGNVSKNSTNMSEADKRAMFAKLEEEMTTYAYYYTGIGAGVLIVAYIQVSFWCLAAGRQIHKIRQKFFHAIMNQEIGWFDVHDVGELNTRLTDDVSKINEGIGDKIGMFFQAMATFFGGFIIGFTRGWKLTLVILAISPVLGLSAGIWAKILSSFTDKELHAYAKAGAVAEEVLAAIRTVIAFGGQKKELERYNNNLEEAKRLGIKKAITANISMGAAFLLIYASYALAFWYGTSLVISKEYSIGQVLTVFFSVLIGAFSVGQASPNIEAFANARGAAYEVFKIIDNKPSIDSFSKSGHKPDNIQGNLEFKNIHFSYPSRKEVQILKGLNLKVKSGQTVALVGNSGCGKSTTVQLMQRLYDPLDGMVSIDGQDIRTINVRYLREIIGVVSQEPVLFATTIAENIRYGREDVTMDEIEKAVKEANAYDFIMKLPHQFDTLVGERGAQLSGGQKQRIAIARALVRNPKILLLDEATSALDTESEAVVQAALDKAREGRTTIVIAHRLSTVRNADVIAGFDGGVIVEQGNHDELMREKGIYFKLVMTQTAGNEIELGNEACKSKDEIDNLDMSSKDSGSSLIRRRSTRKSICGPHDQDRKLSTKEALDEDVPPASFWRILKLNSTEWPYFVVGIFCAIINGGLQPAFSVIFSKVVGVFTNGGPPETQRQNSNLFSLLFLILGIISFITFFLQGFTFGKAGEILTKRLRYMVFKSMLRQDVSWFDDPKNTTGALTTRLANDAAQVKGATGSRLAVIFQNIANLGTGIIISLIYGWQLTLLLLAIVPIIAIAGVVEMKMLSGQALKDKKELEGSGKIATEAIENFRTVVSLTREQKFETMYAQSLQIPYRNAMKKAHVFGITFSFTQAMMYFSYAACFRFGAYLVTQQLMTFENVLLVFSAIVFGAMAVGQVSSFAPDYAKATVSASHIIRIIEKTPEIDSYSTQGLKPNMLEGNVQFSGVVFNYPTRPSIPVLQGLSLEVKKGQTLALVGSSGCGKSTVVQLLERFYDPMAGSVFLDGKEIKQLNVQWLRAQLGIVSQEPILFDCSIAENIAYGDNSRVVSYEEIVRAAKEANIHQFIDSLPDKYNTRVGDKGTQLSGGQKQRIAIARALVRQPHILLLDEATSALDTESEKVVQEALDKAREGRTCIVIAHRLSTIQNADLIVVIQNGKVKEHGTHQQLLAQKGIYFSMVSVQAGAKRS

`CN1C(=O)CN=C(c2ccccc2)c2cc(Cl)ccc21` [DIAZEPAM] was tested, and the Activity [1] was “is not a substrate [-]”, the Activity [2] was “is not a substrate [-]” and the Activity [3] was “is not a substrate [-]”. For the same molecule, the Activity [4] was “is not a substrate [-]” and the Activity [5] was “is not a substrate [-]”.
In the case of `C[C@@H](O)[C@H]1C(=O)N2C(C(=O)[O-])=C(S[C@@H]3CN[C@H](C(=O)Nc4cccc(C(=O)O)c4)C3)[C@H](C)[C@H]12.O.[Na+]`, the Activity [1] is reported as “is not a substrate [-]”, the Activity [2] is reported as “is not a substrate [-]” and the Activity [5] is reported as “is not a substrate [-]”.
In the case of `CC(C)(C)NC(=O)[C@@H]1CN(Cc2cc3ccccc3o2)CCN1[C@@H](Cc1ccccc1)[C@@H](O)C[C@@H](Cc1ccccc1)C(=O)NC1c2ccccc2C[C@H]1O` (some centres undefined), the Activity [6] is reported as “substrate [+]”, the Activity [2] is reported as “substrate [+]” and the Activity [5] is reported as “substrate [+]”. For the same molecule, the Activity [7] was “substrate [+]”.
For `CC(C)(C)NC(=O)[C@@H]1CN(Cc2cccnc2)CCN1C[C@@H](O)C[C@@H](Cc1ccccc1)C(=O)N[C@H]1c2ccccc2C[C@H]1O.O`, the Activity [6] was “substrate [+]”, the Activity [2] was “substrate [+]” and the Activity [5] was “substrate [+]”. The Activity [7] was “substrate [+]”.
With `N#Cc1ccc(Cn2cncc2CN2CCN(c3cccc(Cl)c3)C(=O)C2)cc1` [L-778123 FREE BASE] the Activity [1] was “substrate [+]”, the Activity [2] was “substrate [+]” and the Activity [5] was “substrate [+]”.
In the case of `CC[C@]1(O)C[C@@H]2CN(CCc3c([nH]c4ccccc34)[C@@](C(=O)OC)(c3cc4c(cc3OC)N(C)[C@H]3[C@@](O)(C(=O)OC)[C@H](OC(C)=O)[C@]5(CC)C=CCN6CC[C@]43[C@@H]65)C2)C1` [VINBLASTINE], the Activity [6] is reported as “substrate [+]”, the Activity [5] is reported as “substrate [+]” and the Activity [7] is reported as “substrate [+]”.
In the case of `C[C@H](N)c1ccc(N2CCC(c3nc(-c4cccc(C(F)(F)F)c4)c(-c4ccncc4)n3C)CC2)cc1.[O-][Cl+3]([O-])([O-])O`, the Activity [6] is reported as “substrate [+]”, the Activity [1] is reported as “substrate [+]” and the Activity [2] is reported as “substrate [+]”. For the same molecule, the Activity [5] was “substrate [+]” and the Activity [7] was “substrate [+]”.
In the case of `Cc1cccc(NC(=O)NC2N=C(c3ccccc3)c3ccccc3N(C)C2=O)c1` (centres undefined), the Activity [6] is reported as “substrate [+]”, the Activity [1] is reported as “substrate [+]” and the Activity [2] is reported as “substrate [+]”. For the same molecule, the Activity [5] was “substrate [+]” and the Activity [7] was “substrate [+]”.
In the case of `CN1C(=O)C(NC(=O)c2cc3ccccc3[nH]2)N=C(c2ccccc2)c2ccccc21` (racemic), the Activity [1] is reported as “is not a substrate [-]”, the Activity [2] is reported as “is not a substrate [-]” and the Activity [5] is reported as “is not a substrate [-]”.
For `CC(=O)[C@H]1CC[C@H]2[C@@H]3CCC4=CC(=O)CC[C@]4(C)[C@H]3CC[C@]12C` [PROGESTERONE], the Activity [1] was “substrate [+]”, the Activity [2] was “is not a substrate [-]” and the Activity [5] was “is not a substrate [-]”.
With `CC[C@H](C)C[C@H](C)CCCCCCCCC(=O)N[C@H]1C[C@@H](O)[C@@H](NCCN)NC(=O)[C@@H]2[C@@H](O)CCN2C(=O)[C@H]([C@H](O)CCN)NC(=O)[C@H]([C@H](O)[C@@H](O)c2ccc(O)cc2)NC(=O)[C@@H]2C[C@@H](O)CN2C(=O)[C@H]([C@@H](C)O)NC1=O` [CASPOFUNGIN] the Activity [1] was “is not a substrate [-]”, the Activity [2] was “is not a substrate [-]” and the Activity [5] was “is not a substrate [-]”.
In the case of `Cc1nc(N)ccc1CNC(=O)Cn1c(C)cnc(NCCc2ccccc2)c1=O.Cl.Cl.O`, the Activity [1] is reported as “substrate [+]”, the Activity [2] is reported as “substrate [+]” and the Activity [5] is reported as “substrate [+]”.
